Assay: Pharmacokinetics after intravenous and oral administration in rats
Assay type: in vivo
Settings: for Clearance (CL) after iv dosing / AUC(0-t) / half-life / Vd: dose 1 mg/kg (Ex. 9: 0.6, Ex. 18: 0.5, Ex. 50: 0.96 mg/kg), iv dosing; for AUC(0-t) / half-life / Vd / bioavailability: rat, plasma; for Vd: read-out: Vss; for bioavailability: oral (generally 5 or 10 mg/kg) versus iv dosing, read-out: F (oral bioavailability)
Procedure, shortened: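 Rats dosed i.v. (about 0.5, 0.6, 1 or 2 mg/kg) or p.o. (5 or 10 mg/kg) as solution, suspension or capsule. Plasma sampled over 24 h and quantified by LC/MS/MS in MRM mode with ESI.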

Structure (SMILES) | Clearance (CL) after iv dosing | AUC(0-t) | half-life | Vd | bioavailability
N#Cc1ccc(N2CCC(Nc3nc(Nc4ccn5c(C(F)F)nnc5c4)ncc3Cl)CC2)nc1 [Example 30, 6-(4-((5-chloro-2-((3-(difluoromethyl)-[1,2,4]triazolo[4,3-a]pyridin-7-yl)amino)pyrimidin-4-yl)amino)piperidin-1-yl)nicotinonitrile] | 0.17 L/h/kg | 5130 ng·h/mL | 157 min | 0.61 L/kg | 116%
CC(C)(O)Cc1nc2ccc(Nc3ncc(Cl)c(NC4CCN(c5ccc(C#N)nn5)CC4)n3)cn2n1 [Example 79, 6-(4-((5-chloro-2-((2-(2-hydroxy-2-methylpropyl)-[1,2,4]triazolo[1,5-a]pyridin-6-yl)amino)pyrimidin-4-yl)amino)piperidin-1-yl)pyridazine-3-carbonitrile] | 16.3 L/h/kg | 1020 ng·h/mL | 45.7 min | 1.23 L/kg | 42.1%
Cn1nnc2cc(Nc3ncc(Cl)c(NC4CCN(c5ccc(C#N)nn5)CC4)n3)ccc21 [Example 47, 6-(4-((5-chloro-2-((l-methyl-1H-benzo[d][1,2,3]triazol-5-yl)amino)pyrimidin-4-yl)amino)piperidin-1-yl)pyridazine-3-carbonitrile] | 0.70 L/h/kg | 1490 ng·h/mL | 46.8 min | 0.87 L/kg | 144%
CC(C)(O)Cc1cn2cc(Nc3ncc(Cl)c(NC4CCN(c5ccc(C#N)cn5)CC4)n3)ccc2n1 [Example 73, 6-(4-((5-chloro-2-((2-(2-hydroxy-2-methylpropyl)imidazo[1,2-a]pyridin-6-yl)amino)pyrimidin-4-yl)amino)piperidin-1-yl)nicotinonitrile] | 2.19 L/h/kg | 464 ng·h/mL | 42 min | 1.8 L/kg | 56.4%
CCC1CN(c2ccc(C#N)cn2)CCC1Nc1nc(Nc2ccn3c(C)cnc3c2)ncc1Cl (stereo not shown) [Example 2, 6-(4-((5-chloro-2-((3-methylimidazo[1,2-a]pyridin-7-yl)amino)pyrimidin-4-yl)amino)-3-ethylpiperidin-1-yl)nicotinonitrile] | 0.51 L/h/kg | 1960 ng·h/mL | 66 min | 0.73 L/kg | 50.2%
Cc1nc2cc(Nc3ncc(Cl)c(NC4CCN(c5ccc(C#N)cn5)CC4)n3)ccc2n1C [Example 48, 6-(4-((5-chloro-2-((1,2-dimethyl-1H-benzo[d]imidazol-5-yl)amino)pyrimidin-4-yl)amino)piperidin-1-yl)nicotinonitrile] | 0.67 L/h/kg | 1510 ng·h/mL | 64.8 min | 0.89 L/kg | 79.4%
Cn1cnc2cc(Nc3ncc(Cl)c(NC4CCN(c5ccc(C#N)cn5)CC4)n3)ccc21 [Example 46, 6-(4-((5-chloro-2-((1-methyl-1H-benzo[d]imidazol-5-yl)amino)pyrimidin-4-yl)amino)piperidin-1-yl)nicotinonitrile] | 0.29 L/h/kg | 3400 ng·h/mL | 60.6 min | 0.42 L/kg | 126%

Other lines, results leading:

Clearance (CL) after iv dosing | AUC(0-t) | half-life | Vd | bioavailability | Structure (SMILES)
11.2 L/h/kg | 1490 ng·h/mL | 59.2 min | 0.795 L/kg | 84.8% | CC(C)(O)Cc1nc2cc(Nc3ncc(Cl)c(NC4CCN(c5ccc(C#N)cn5)CC4)n3)ccn2n1 [Example 78, 6-(4-((5-chloro-2-((2-(2-hydroxy-2-methylpropyl)-[1,2,4]triazolo[1,5-a]pyridin-7-yl)amino)pyrimidin-4-yl)amino)piperidin-1-yl)nicotinonitrile]
1.16 L/h/kg | 860 ng·h/mL | 56.4 min | 1.39 L/kg | 23.5% | CC(C)(O)c1cn2ccc(Nc3ncc(Cl)c(NC4CCN(c5ccc(C#N)cn5)CC4)n3)cc2n1 [Example 70, 6-(4-((5-chloro-2-((2-(2-hydroxypropan-2-yl)imidazo[1,2-a]pyridin-7-yl)amino)pyrimidin-4-yl)amino)piperidin-1-yl)nicotinonitrile]
0.90 L/h/kg | 1090 ng·h/mL | 80.4 min | 1.51 L/kg | – | CC(C)(O)c1cnc2cc(Nc3ncc(Cl)c(NC4CCN(c5ccc(C#N)cn5)CC4)n3)ccn12 [Example 68, 6-(4-((5-chloro-2-((3-(2-hydroxypropan-2-yl)imidazo[1,2-a]pyridin-7-yl)amino)pyrimidin-4-yl)amino)piperidin-1-yl)nicotinonitrile]
9.07 L/h/kg | 1860 ng·h/mL | 50.6 min | 0.623 L/kg | – | CC(C)(O)Cc1nc2cc(Nc3ncc(Cl)c(NC4CCN(c5ccc(C#N)nn5)CC4)n3)ccn2n1 [Example 77, 6-(4-((5-chloro-2-((2-(2-hydroxy-2-methylpropyl)-[1,2,4]triazolo[1,5-a]pyridin-7-yl)amino)pyrimidin-4-yl)amino)piperidin-1-yl)pyridazine-3-carbonitrile]
0.35 L/h/kg | 2830 ng·h/mL | 279 min | 1.25 L/kg | 52% | CC(C)(O)c1nc2cc(Nc3ncc(Cl)c(NC4CCN(c5ccc(C#N)cn5)CC4)n3)ccn2n1 [Example 39, 6-(4-((5-chloro-2-((2-(2-hydroxypropan-2-yl)-[1,2,4]triazolo[1,5-a]pyridin-7-yl)amino)pyrimidin-4-yl)amino)piperidin-1-yl)nicotinonitrile]
0.67 L/h/kg | 1470 ng·h/mL | 87 min | 1.25 L/kg | 49.7% | CC(C)(O)Cc1nc2ccc(Nc3ncc(Cl)c(NC4CCN(c5ccc(C#N)cn5)CC4)n3)cn2n1 [Example 67, 6-(4-((5-chloro-2-((2-(2-hydroxy-2-methylpropyl)-[1,2,4]triazolo[1,5-a]pyridin-6-yl)amino)pyrimidin-4-yl)amino)piperidin-1-yl)nicotinonitrile]
1.33 L/h/kg | 752 ng·h/mL | 56.4 min | 1.7 L/kg | 69.8% | CC(C)(O)Cn1nnc2cc(Nc3ncc(Cl)c(NC4CCN(c5ccc(C#N)cn5)CC4)n3)ccc21 [Example 69, 6-(4-((5-chloro-2-((1-(2-hydroxy-2-methylpropyl)-1H-benzo[d][1,2,3]triazol-5-yl)amino)pyrimidin-4-yl)amino)piperidin-1-yl)nicotinonitrile]
0.85 L/h/kg | 2020 ng·h/mL | 91.8 min | 0.96 L/kg | 180% | Cc1nc2cc(Nc3ncc(Cl)c(NC4CCN(c5ccc(C#N)cn5)CC4)n3)ccn2n1 [Example 32, 6-(4-((5-chloro-2-((2-methyl-[1,2,4]triazolo[1,5-a]pyridin-7-yl)amino)pyrimidin-4-yl)amino)piperidin-1-yl)nicotinonitrile]

From US10683297B2 (Sunshine Lake Pharma Co., Ltd., priority 2017, dated 2020)
